In ChEMBL document CHEMBL5104099, “Recent applications of seven-membered rings in drug design” (Bioorg Med Chem, 2022):
Converted amounts (≈) assume the structure as drawn. One block for each molecule: values may come before it.

Experiments:
[1] = target: Human immunodeficiency virus type 1 protease (Human immunodeficiency virus 1, UniProt Q72874); test: Binding affinity to HIV-1 protease assessed as inhibition constant incubated for 60 mins by mass spectrometric analysis
[2] = Aqueous solubility of the compound; type: physicochemical
[3] = target: Tyrosine-protein kinase BTK (Homo sapiens, UniProt Q06187); test: Inhibition of BTK in human whole blood; type: tissue-based
Chain of Tyrosine-protein kinase BTK (Q06187 whole entry): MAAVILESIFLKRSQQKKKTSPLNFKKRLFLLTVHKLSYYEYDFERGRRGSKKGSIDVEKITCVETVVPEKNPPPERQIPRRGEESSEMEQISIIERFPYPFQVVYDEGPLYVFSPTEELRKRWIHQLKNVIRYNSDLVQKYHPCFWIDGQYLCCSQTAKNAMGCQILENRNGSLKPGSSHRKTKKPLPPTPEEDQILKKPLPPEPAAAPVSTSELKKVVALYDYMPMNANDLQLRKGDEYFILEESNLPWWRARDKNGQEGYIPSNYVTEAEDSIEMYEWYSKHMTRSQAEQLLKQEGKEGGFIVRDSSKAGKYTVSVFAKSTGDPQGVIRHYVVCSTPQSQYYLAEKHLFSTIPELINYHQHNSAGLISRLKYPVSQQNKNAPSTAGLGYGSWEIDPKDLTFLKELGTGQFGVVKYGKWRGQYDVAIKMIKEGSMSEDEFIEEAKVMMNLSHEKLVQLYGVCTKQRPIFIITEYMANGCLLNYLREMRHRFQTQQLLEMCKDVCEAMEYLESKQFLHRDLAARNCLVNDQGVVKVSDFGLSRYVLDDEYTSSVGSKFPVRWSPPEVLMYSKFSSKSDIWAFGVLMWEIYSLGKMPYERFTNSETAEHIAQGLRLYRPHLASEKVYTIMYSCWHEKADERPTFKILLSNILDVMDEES

Structure (SMILES): CC(C)[C@H]1Cc2cc(F)ccc2S(=O)(=O)N(C[C@@H](O)[C@H](Cc2ccccc2)NC(=O)O[C@H]2CCOC2)C1
Ki [1]: 0.36 nM

solubility [2]: 1 µg/mL (≈ 1.5 µM)
Structure (SMILES): Cn1c2c(cc(Nc3ccc(C(=O)N4CCOCC4)cn3)c1=O)-c1cccc(-n3ncc4cc(C(C)(C)C)cc(F)c4c3=O)c1C[C@H](O)C2

IC50 [3]: 1 nM
Structure (SMILES): Cn1cc(-c2cccc(-n3ncc4cc(C(C)(C)C)cc(F)c4c3=O)c2CO)cc(Nc2ccc(C(=O)N3CCOCC3)cn2)c1=O
